# Experimental data from patent US7202024B2, “bbc3 Gene promoter and methods for identifying modulators of apoptosis and bbc3 gene expression using a bbc3 gene promoter” (Immunogen Inc., priority 2001, dated 2007).
# Peptide text beside a SMILES is read from it. * marks the point of attachment. Cbz = O=C(OCc1ccccc1)*; CH2F = FC*
# Key:
# bbc3 mRNA [1] = experiment: Northern blot of bbc3 mRNA in E1a/Ras/p53MER mouse fibroblast cell line; format: cell-based; conditions: p53-estrogen receptor fusion cells, 4-OHT 100 nM, 5 hours
# Description: (§1) Northern blots were hybridized with a murine bbc3 cDNA probe, followed by re-hybridization with an actin probe.
# Cell death induced by etoposide and other DNA-damaging drugs in murine fibroblasts is mediated, at least in part, by the p53 tumor suppressor (Levine, A. J., Cell 88:323–31 (1997); Vousden, K. H., Cell 103:691–4 (2000)).
# (§2) All cell lines used were obtained from ATCC, unless otherwise noted. HeLa/Bcl-XL cells were generated by stable transfection of HeLa cells with a vector encoding a Flag-epitope tagged BCl-xL. Murine myeloid leukemia M1 cells containing a temperature sensitive p53-val135 mutant (M1p53ts), and E1A/ras transformed p53^−/−mouse embryonic fibroblasts containing a p53-estrogen receptor fusion, have been described previously (Vater, C. A., et al., Oncogene 13:739–48 (1996); Yonish-Rouach, E., et al., Nature 352:345–7 (1991)).
# (§3) Total RNA was isolated from mouse thymocytes (RNeasy system, Qiagen). Poly(A)+RNA (FastTract system, Invitrogen) was prepared in all other experiments. 10 μg of total RNA or 3 μg of poly(A)+RNA per lane was denatured and separated by electrophoresis in 1% formaldehyde agarose gels. Northern blotting was performed following standard methods.
# Bbc3 protein [2] = experiment: Western blot of Bbc3 protein in HT29 cells; format: cell-based, human; conditions: for ability of serum to suppress Bbc3 protein levels: HT29 cells in serum, 50 μM LY294002, 10 μM PD98059, 30 μM AG1478 or 50 μM AG1024; for ability of serum to suppress Bbc3 protein levels / Bbc3 protein expression: 24 hrs; for Bbc3 protein expression: 100 ng/ml IGF-1, 50 ng/ml EGF or 25 ng/ml PDGF
# Protocol: (§4) HT29 cells were incubated for one day in the absence of serum (−), and then incubated in media containing either serum, 100 ng/ml IGF-1, 50 ng/ml EGF, or 25 ng/ml PDGF, for 24 hrs. Bbc3 was detected by western blot analysis, followed by sequential probing of the blot with anti-Bax and anti-Bcl-xL antibodies.
# HT29 cells were cultured as in FIG. 6B and then incubated for 24 hrs in media containing either serum, 100 ng/ml IGF-1, or 100 ng/ml IGF-1 in the presence of 50 μM LY294002 (added 1 hr prior to IGF-1). Bbc3 was detected by western blot analysis.
# HT29 cells were grown in the presence of serum (lane 1), and then incubated for 24 hrs in the absence of serum, or in the presence of serum supplemented with 50 μMLY294002.
# HT29 cells were incubated for one day in the absence of serum (−), and then incubated in media containing either serum, 50 ng/ml EGF, or 50 ng/ml EGF+30 nM AG1478, for 24 hrs. Bbc3 was detected by western blot analysis.
# HT29 cells were cultured in the presence of serum for one day (+) and then incubated for 24 hrs with serum or without serum, or in the presence of serum supplemented with either 10 μM PD98059, 30 μM AG1478, or 50 μM AG1024. Bbc3 was detected by western blot analysis, followed by reprobing of the blot with anti-Bax.
# (§5) A mouse monoclonal antibody, KM140, was made against a recombinant GST-Bbc3 fusion protein. The KM140 epitope was mapped to residues 73–76 by probing a blot with arrayed overlapping Bbc3 peptides (Research Genetics). Cells were plated at 3–10×10^6 cells per 100 mm dish in either serum containing (10% FBS), or serum free media (0% FBS, 0.1% BSA). Cell lysates were prepared, electrophoresed (100 to 200 μg per lane) on 4–20% polyacrylamide reducing gels, and analyzed by western blotting as described previously (Chittenden, T., et al., EMBO J. 14:5589–96 (1995)).
# bbc3 mRNA [3] = experiment: Northern blot of bbc3 mRNA in NIH3T3 cells; format: cell-based, murine; conditions: etoposide 50 μM, 6 hours
# Protocol: as §1
# To evaluate whether the activity of bbc3 might be under transcriptional control, the expression of bbc3 was examined in response to apoptotic stimuli likely to involve new mRNA/protein synthesis.
# as §3
# PARP = experiment: Western blot of PARP cleavage in serum-starved Jurkat cells; format: cell-based, human; conditions: without serum 24 hrs, z-VAD 100 μM
# Description: (§6) Bbc3 and PARP were detected by western blot analysis.
# (§7) Deprivation of serum is a strong pro-apoptotic stimulus for many cultured tumor cell lines, triggering cell death or sensitizing cells to other apoptotic stimuli. Thus, the effect of serum deprivation on bbc3 mRNA expression and Bbc3 protein levels was also examined, using a monoclonal antibody generated against recombinant human Bbc3. A striking increase in Bbc3 protein levels was observed upon serum deprivation in multiple human tumor cell lines (FIG. 5B), including cell lines that lack functional p53. […] Therefore, the induction of Bbc3 precedes caspase activation, and is not simply a response to the engagement of the cell death program.
# as §5
# Bbc3 protein [4] = experiment: Western blot of Bbc3 in serum-starved Jurkat cells; format: cell-based, human; conditions: without serum 24 hrs, z-VAD 100 μM
# Description: as §6, §7, §5
# GST-Bcl-xL = GST-Bcl-xL (Homo sapiens, UniProt Q07817); experiment: Bcl-xL competition binding assay (ELISA, immobilized Bak BH3 peptide); conditions: competition with immobilized Bak BH3 peptide
# Sequence of GST-Bcl-xL (Q07817 whole entry): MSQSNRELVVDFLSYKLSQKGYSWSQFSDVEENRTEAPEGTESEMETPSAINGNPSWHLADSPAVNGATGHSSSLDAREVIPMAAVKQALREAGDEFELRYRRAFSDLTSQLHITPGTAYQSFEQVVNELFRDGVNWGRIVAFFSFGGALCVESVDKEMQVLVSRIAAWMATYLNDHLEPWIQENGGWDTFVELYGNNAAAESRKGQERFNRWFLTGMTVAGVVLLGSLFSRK
# Protocol: Binding of GST-Bcl-xL to an immobilized Bak BH3 peptide was measured by ELISA (triplicate samples, +S.D.), in the presence of the indicated concentrations of a competing synthetic Bbc3 BH3 or Bak BH3 peptide.
# Cell lysates were prepared and co-immunoprecipitation assays were performed as described previously (Chittenden, T., et al., EMBO J. 14:5589–96 (1995)). The Bcl-xL competition binding assay was performed as previously described (Zhou, X. M., et al., J. Biol. Chem. 275:25046–51 (2000)), using synthetic BH3 peptides comprising residues 133–152 of Bbc3, and residues 70–89 of Bak.
# Bax = experiment: Western blot of Bax in HT29 cells; format: cell-based, human; conditions: serum-starved HT29 cells, 24 hrs; 100 ng/ml IGF-1 or 50 ng/ml EGF
# Protocol: as §4, §5
# Bcl-xL = experiment: Western blot of Bcl-xL in HT29 cells; format: cell-based, human; conditions: serum-starved HT29 cells, 24 hrs; 100 ng/ml IGF-1 or 50 ng/ml EGF
# Protocol: as §4, §5
# bbc3 gene promoter = bbc3 gene promoter luciferase reporter assay (pGL3/0.9) in HeLa/Bcl-xL cells; format: cell-based, human; conditions: pGL3/0.9, no serum, 100 ng/ml IGF-1, 24 hrs
# Protocol: The pGL3/0.9 bbc3 gene promoter luciferase reporter plasmid was transfected into HeLa-Bcl-xL cells. At 24 hrs after transfection, cells were incubated for an additional 24 hrs in the presence of 20% serum (+) with or without 50 μM LY294002, or in the absence of serum (−) with or without 100 ng/ml IGF-1. Luciferase activity was measured and normalized for transfection efficiency (β-galactosidase).
# Additional experiments were performed to determine whether the bbc3 gene promoter was regulated by signal transduction pathways known to play a role in cell survival. A bbc3 gene promoter-luciferase reporter construct containing 0.9 kb of the bbc3 gene promoter region, was transfected into HeLa/Bcl-xL cells and the activity of the promoter measured by luciferase assays 48 hours after transfection. […] Thus, a PI-3 kinase dependent pathway controls, at least in part, the activity of the bbc3 gene promoter. […]
# Luciferase assays were performed using the Dual-Light System (Tropix) for the combined detection of luciferase and β-galactosidase. […] Luciferase and β-galactosidase activities were measured 24 hours following transfection. […] Cell culture medium was changed to either DMEM containing 20% serum, or DMEM without serum, 24 hours following transfection and luciferase/β-galactosidase levels were measured after an additional 24 hours of incubation. […]
# bbc3 mRNA [5] = experiment: Northern blot of bbc3 mRNA in M1p53ts cells after temperature shift; format: cell-based, murine; conditions: M1p53ts cells shifted to 32° C. for 6 hours in the presence of IL-6
# Description: as §1
# (Yonish-Rouach, E., et al., Nature 352:345–7 (1991)). […] (FIG. 3C). […] (FIG. 3C).
# as §2, §3
molecule,measurement,setting,value
4-hydroxytamoxifen [4-OHT],bbc3 mRNA levels,bbc3 mRNA [1],sufficient to induce bbc3 mRNA levels
COc1cc2ncnc(Nc3cccc(Cl)c3)c2cc1OC [AG1478],ability of serum to suppress Bbc3 protein levels,Bbc3 protein [2],blocked the ability of EGF and serum to suppress Bbc3 protein expression
same,ability of EGF to suppress Bbc3 protein expression,"Bbc3 protein [2]; serum-starved HT29 cells, 50 ng/ml EGF + 30 nM AG1478, 24 hrs",blocked the ability of EGF and serum to suppress Bbc3 protein expression
COc1cccc(-c2cc(=O)c3ccccc3o2)c1N [PD98059],ability of serum to suppress Bbc3 protein levels,Bbc3 protein [2],impaired the ability of serum to suppress Bbc3 protein expression
COc1cc([C@@H]2c3cc4c(cc3[C@@H](O[C@@H]3O[C@@H]5CO[C@@H](C)O[C@H]5[C@H](O)[C@H]3O)[C@H]3COC(=O)[C@H]23)OCO4)cc(OC)c1O [etoposide],bbc3 mRNA levels,bbc3 mRNA [3],rapid induction of bbc3 mRNA levels
CC(C)(C)c1cc(C=C(C#N)C#N)cc(Br)c1O [tyrphostin AG1024],ability of serum to suppress Bbc3 protein levels,Bbc3 protein [2],impaired the ability of serum to suppress Bbc3 protein expression
CC(NC(=O)C(NC(=O)OCc1ccccc1)C(C)C)C(=O)NC(CC(=O)O)C(=O)CF (stereo not drawn) [z-VAD] (Cbz-Val-Ala-Asp-CH2F; configuration not given here),cleavage of the caspase substrate PARP,PARP,"prevented cleavage of the caspase substrate, PARP"
same,induction of Bbc3 protein levels by serum deprivation,Bbc3 protein [4],no impact on the induction of Bbc3 protein levels
Bbc3 BH3 peptide: 20 amino acid synthetic peptide encompassing the Bbc3 BH3 domain (residues 133 to 152) (WAREIGAQLRRMADDLNAQY),binding affinity to recombinant GST-Bcl-xL in vitro,GST-Bcl-xL,affinity comparable to a previously characterized Bak BH3 peptide
"EGF: growth factor with broad anti-apoptotic activity (NSDSECPLSHDGYCLHDGVCMYIEALDKYACNCVVGYIGERCQYRDLKWWELR; UniProt P01133 971-1023, looked up)",Bax protein level,Bax,no effect
same,Bbc3 protein expression,Bbc3 protein [2]; serum-starved HT29 cells,strongly inhibited Bbc3 protein expression
same,Bcl-xL protein level,Bcl-xL,no effect
IGF-1: growth factor with broad anti-apoptotic activity,Bax protein level,Bax,no effect
same,Bbc3 protein expression,Bbc3 protein [2]; serum-starved HT29 cells,strongly inhibited Bbc3 protein expression
same,induction of bbc3 gene promoter activity (luciferase) in the absence of serum,bbc3 gene promoter,substantially reduced
same,Bcl-xL protein level,Bcl-xL,no effect
"IL-6: IL-6, which suppresses apoptosis induced by p53 in M1 cells",induction of bbc3 mRNA by wild-type p53,bbc3 mRNA [5],did not prevent induction of bbc3 mRNA
PDGF,Bbc3 protein expression,Bbc3 protein [2]; serum-starved HT29 cells,failed to suppress Bbc3 levels
